Entries after “also recorded” stand apart in the source; their conditions may differ.
Assays:
Type in all cases: cell-based, mouse
BV2 cells [1] = assay: In vitro phagocytosis assay of pH-dependent fluorescent particles; conditions: for Phagocytosis of pH-sensitive fluorescent beads by BV2 cells: WT BV2, time-lapse microscopy 24 hours, sialidase 400 nM 1 hour, 3Fax-Neu5Ac 32 uM; for Phagocytosis of pH-dependent fluorescent particles by BV2 cells: wild-type BV2, no serum or young serum prior to feeding, monitored over 24 hours
Description: (§1) For in vitro phagocytosis assays, cells were split into a 24-well plate 8-24 hours prior to serum treatment at a density of 50,000 cells/well. Following specific treatments, wells were washed twice with PBS and fed pHrodo-labeled 3 μm amino-coated polystyrene particles (Polysciences) at a ratio of 10 particles per cell or crude myelin, isolated as previously described^47, at 1 mg/mL. pHrodo labeling was carried out as previously described to minimize background fluorescence^37. 4 phase and red fluorescent images per well were acquired every hour for 24 hours using the Incucyte S3 live cell analysis system (Essen Bioscience). For each time point, normalized phagocytosis was calculated using the following formula: red object area/phase confluence. To combine data from independent experiments, phagocytosis was calculated relative to control by setting phagocytosis at zero hours in the no serum control cell condition to 0, and this value at 24 hours to 1. Technical triplicates for each experiment were averaged, and the average of three independent experiments was reported.
(§2) For sialidase treatment, cells were incubated with 400 nM Vibrio cholerae sialidase for 1 hour at 37° C. in serum-free DMEM following serum treatment and prior to feeding. 3Fax-Neu5Ac (R&D) was used as previously described^33. The inhibitor was used at a concentration of 32 μM serially diluted in DMSO and used at a final concentration of 0.1% DMSO in DMEM. 3Fax-Neu5Ac was added with serum treatments for 48 hours prior to phagocytosis assays, and replaced in the feeding medium.
Cells were split into a 24-well plate 24 hours prior to feeding at a density of 50,000 cells/well in serum free medium. Following specific treatments, wells were washed twice with PBS and fed pHrodo-labeled 3 micron amino-coated polystyrene particles (Polysciences) at a ratio of 10 particles per cell. pHrodo labeling was carried out as previously described to minimize background fluorescence^37. 4 phase and red fluorescent images per well were acquired every hour for 24 hours using the Incucyte S3 live cell analysis system (Essen Bioscience). For each time point, normalized phagocytosis was calculated using the following formula: red object area/phase confluence. To combine data from independent experiments, phagocytosis relative to control was calculated by setting phagocytosis at zero hours in the control condition to 0, and this value at 24 hours to 1. Technical triplicates for each experiment were averaged, and the average of three independent experiments was identified.
as §2, with “Cells” for “For sialidase treatment, cells”, “DMEM” for “DMEM following serum treatment and”, “phagocytosis.” for “feeding.”, “described^58.” for “described^33.”, “uM” for “μM”

BV2 cells [2] = assay: Lectin (SNA, MAA) staining of cell-surface sialic acid by flow cytometry; conditions: WT BV2 cells pretreated with sialidase
Source text: Antibodies to CD11b (clone M1/70, BioLegend) and CD45 (clone 30-F11, Biolegend) were used for microglia identification (CD11b+CD45lo). For primary microglia immunophenotyping, the following lectins and antibodies were used: biotinylated Sambucus nigra agglutinin (SNA, Vector Labs), biotinylated Maackia amurensis agglutinins (MAA-1 and MAA-2, Vector), biotinylated Erythrina cristagalli lectin (ECL, EY Labs), biotinylated wheat germ agglutinin (WGA, Vector), recombinant mouse Siglec-E (R&D), recombinant mouse Siglec-F (R&D), antibodies to mouse Siglec-1 (clone REA197, Miltenyi Biotec), CD22 (clone OX-97, Biolegend), Siglec-E (clone M1304A01, Biolegend), Siglec-F (clone ES22-10D8, Miltenyi Biotec), Siglec-G (clone SH1, BD Biosciences), Siglec-H (clone 551, Biolegend), CD33 (clone 9A11, eBioscience), Galectin-3 (clone M3/38, Biolegend). For immunostaining, cells were passed through a 100 μm strainer, blocked for 10 minutes on ice with mouse Fc-blocking reagent (BD), and stained for 30 minutes on ice in DPBS containing calcium and magnesium supplemented with 1% bovine serum albumin. […] Data was analyzed using FlowJo software (TreeStar).
Antibodies to CD11b (clone M1/70, BioLegend) and CD45 (clone 30-F11, Biolegend) were used for microglia identification (CD11b+CD45lo). […] Data was analyzed using FlowJo software (TreeStar).

peritoneal macrophages = assay: Peritoneal macrophage phagocytosis of pH-dependent fluorescent latex particles; conditions: aged (20-month-old) compared to young (2-month-old) macrophages; sialidase
Description: as §1
For sialidase treatment, cells were incubated with 400 nM Vibrio cholerae sialidase for 1 hour at 37° C. in serum-free DMEM following serum treatment and prior to feeding. 3Fax-Neu5Ac (R&D) was used as previously described^33. […]

primary microglia = assay: Ex vivo microglial phagocytosis assay
Description: Whole brain myelin-depleted single-cell suspensions were prepared as described above. Next, a rough estimation of microglia counts from each brain was determined by strictly gating a volume-designated aliquot of the suspensions by forward scatter/side scatter on a flow cytometer (BD Accuri C6). Each suspension was adjusted to contain equal numbers of microglia per unit volume. Then, single cell brain suspensions were treated with sialidase, a CD22 blocking antibody (R&D), or no treatment for 1 hour at 37° C. with periodic agitation. Treatments were washed out and cells were resuspended in FACS buffer containing pHrodo- or CypHer5E-conjugated particles at a ratio of 50 particles per microglia. The cell-particle mixture was incubated for 1-2 hours at 37° C. with periodic agitation. Phagocytosis was stopped by transferring the suspensions to ice, where the cells were stained with antibodies to distinguish microglia. Microglial phagocytosis was assessed by flow cytometry by pre-gating live CD11b+CD45lo cells and assessing pH dependent particle fluorescence within this population. The eating gate was determined using an unfed control, and confirmed by sorting an aliquot of the sample into noneating and eating populations by FACS followed by microscopic assessment.
Whole brain myelin-depleted single-cell suspensions were prepared as described above. Next, a rough estimation of microglia counts from each brain was determined by strictly gating a volume-designated aliquot of the suspensions by forward scatter/side scatter on a flow cytometer (BD Accuri C6). Each suspension was adjusted to contain equal microglia per unit volume. Then, single cell brain suspensions were treated accordingly for 1 hour in serum free DMEM-F12 at 37° C. with periodic agitation. Treatments were washed out and cells were resuspended in FACS buffer containing pHrodo- or CypHer5E-conjugated particles at a ratio of 50 particles per microglia. The cell-particle mixture was incubated for 1-2 hours at 37° C. with periodic agitation. Phagocytosis was stopped by transferring the suspensions to ice, where the cells were stained with antibodies to distinguish microglia. Microglial phagocytosis was assessed by flow cytometry by pre-gating live CD11b+CD45lo cells and assessing pH-dependent particle fluorescence within this population. The eating gate was determined using an unfed control, and confirmed by sorting an aliquot of the sample into non-eating and eating populations by FACS followed by microscopic assessment.

Compound | Phagocytosis of pH-sensitive fluorescent beads by BV2 cells (BV2 cells [1]) | Phagocytosis of pH-dependent fluorescent particles by BV2 cells (BV2 cells [1]) | Engulfment of pH-dependent beads by BV2 cells (flow cytometry) (BV2 cells [1]; 1 hour of feeding, used to define eating gate) | SNA and MAA ligand expression on the cell surface (BV2 cells [2]) | Phagocytosis by peritoneal macrophages (peritoneal macrophages) | Ex vivo phagocytosis by microglia from aged CD22−/− mice (primary microglia; aged (18 m.o.) CD22−/−) | Ex vivo phagocytosis of latex particles by aged microglia (primary microglia; aged WT mice, 1 hour pretreatment, flow cytometry) | Ex vivo phagocytosis by microglia from 12-month-old CD22−/− mice (primary microglia; relative to age-matched wild-type control microglia) | Ex vivo phagocytosis of latex particles by young microglia (primary microglia; young (2-month-old) mice) | Phagocytosis of pH-sensitive fluorescent beads by CD22 KO BV2 cells (BV2 cells [1]; CD22 KO BV2 + sialidase)
COC(=O)C1(OC(C)=O)OC([C@H](OC(C)=O)[C@@H](COC(C)=O)OC(C)=O)C(NC(C)=O)C(OC(C)=O)C1F (stereo partly drawn) [3Fax-Neu5Ac, reference compound] | promotes phagocytosis in BV2 cells | promoted phagocytosis in the no serum condition only | – | – | – | – | – | – | – | –
C=C1[C@@H](C)[C@H]2[C@H](Cc3ccccc3)NC(=O)[C@]23[C@H](OC(C)=O)/C=C/[C@@](C)(O)C(=O)[C@@H](C)C/C=C/[C@H]3[C@@H]1O [cytochalasin D, reference compound] | – | – | actin polymerization is blocked preventing engulfment | – | – | – | – | – | – | –
sialidase: Sialidase from Vibrio cholerae expressed in Escherichia coli C600; removes cell-surface sialic acid | promotes phagocytosis in BV2 cells | promote phagocytosis in the absence of young serum | – | reduce sialic acid ligands on the cell surface | increased phagocytosis dramatically in aged macrophages | had no effect in CD22−/− microglia | rescued phagocytosis in aged microglia; also recorded: promoted phagocytosis in WT microglia | reduced pro-phagocytic response to sialidase | did not enhance phagocytosis in already competent young microglia | completely abrogated in the absence of CD22
